Publication PMC4789278, “Pharmacological inhibition of LSD1 for the treatment of MLL-rearranged leukemia” (Journal of Hematology & Oncology, 2016)

What was measured:
[1] = system: MV4-11 leukemia cells; test: Antiproliferation assay (XTT), MV4-11; assay type: cell-based; conditions: Homo sapiens, MV4-11, 360 h; 15-day treatment; MLL-rearranged leukemia; read-out: MV4-11 EC50 (antiproliferative)
Procedure: Next, these three compounds were tested for their cellular activity against proliferation of MV4-11 leukemia cells bearing MLL-AF4 fusion oncogene.
(§1) These compounds were incubated with a panel of six human leukemia and solid tumor cell lines, including two MLL-rearranged leukemia cells MV4-11 and Molm-13 containing fusion oncogenes MLL-AF4 and -AF9, respectively. […] Also included in the studies are breast cancer MCF-7 and prostate cancer LNCaP cells.
(§2) Proliferation inhibition assay for suspension leukemia cells was performed using an XTT assay kit (Roche) with our previously described method. Proliferation inhibition assay for solid tumor cell lines MCF-7 and LNCaP was performed using our previous described MTT assay. The antiproliferation EC50 values were determined by Prism, and the reported results were the mean values of at least three independent experiments.

[2] = system: Molm-13 leukemia cells; test: Antiproliferation assay (XTT), Molm-13; assay type: cell-based; conditions: Homo sapiens, MOLM-13, 360 h; 15-day treatment; MLL-rearranged leukemia; read-out: Molm-13 EC50 (antiproliferative)
Procedure: as §1, §2

[3] = system: breast cancer MCF-7 cells; test: Antiproliferation assay (MTT), MCF-7; assay type: cell-based; conditions: Homo sapiens, MCF7, 360 h, 15-day treatment, read-out: MCF-7 EC50 (antiproliferative)
Procedure: as §1, §2

[4] = system: gene expression in MV4-11 cells; test: Microarray / GSEA; assay type: cell-based, human; conditions: 7 days
Procedure: To this end, triplicate samples of MV4-11 cells were treated with compounds 1 and 2 and the RNA of these samples was isolated, amplified, and hybridized to Illumina HT-12 microarrays. The microarray data were log2-transformed and normalized to have the same median values for comparative analysis. Moderate t test was applied to search for genes that were differentially expressed between the control and compound treated samples, using the filter thresholds of p values <0.05 and fold changes >4. […] Next, we used gene set enrichment analysis (GSEA) in an effort to find the possible mechanism(s) for the LSD1 inhibition-mediated antileukemia activity.
For 7 days, 10^5 cells/well were incubated with compounds. Cells were treated with Trizol® Reagent, frozen in liquid nitrogen, and shipped to Asuragen, Inc. (Austin, TX) for microarray experiments. RNA from these samples was isolated, amplified, and hybridized to Illumina Human HT-12 v4 arrays according to the manufacturer’s protocol. Microarray data were log2 transformed and normalized to have the same median for all the arrays. Moderate t statistics were used to find genes that were differentially expressed between the samples of interest. Benjamini and Hochberg method was used to correct for multiple comparisons. […]

[5] = set-up: method as in PMID 22754608; conditions: mice; cited from earlier work
[6] = target: T1, recombinant human LSD1 (Homo sapiens, UniProt O60341); test: LSD1 enzyme inhibition assay (HRP/Amplex red); assay type: biochemical
T1 construct: Human LSD1 catalytic domain (172-833) was cloned; made in house; host or cells: E. coli BL21-CodonPlus (Agilent)
Procedure: The LSD1 inhibition assay was performed with the reaction rate (i.e., amount of the product H2O2, Additional file 1: Figure S2) being quantitatively determined by adding horseradish peroxidase (HRP) and a HRP fluorescence substrate Amplex red.
Human LSD1 catalytic domain (172-833) was cloned and inserted into pGEX-KG vector. The correctness of insert was verified by sequencing. BL21-CodonPlus strain (Agilent) was transformed with the pGEX-KG-LSD1 plasmid and cultured at 37 °C in LB medium containing ampicillin (50 μg/mL) and chloramphenicol (34 μg/mL). Upon reaching an optical density of ~0.9 at 600 nm, LSD1 expression was induced by adding 0.2 mM isopropylthiogalactoside at 25 °C for 20 h. Cells were harvested, lysed, and centrifuged at 20,000 rpm for 20 min, and the supernatant was collected and subjected to an affinity column chromatography using the glutathione sepharose resin.
The inhibition assay for the recombinant LSD1 was performed using a published protocol, with the reaction rate (i.e., amount of the product H2O2) being quantitatively determined by adding HRP and a HRP fluorescence substrate Amplex red. […] The total volume of the reaction mixture is 60 μL. After 20 min, 60-μL solution containing HRP (0.01 unit) and Amplex red (80 μM) was added and the fluorescence of each well was determined using a Beckman DTX-880 microplate reader (excitation at 535 and emission at 595 nm). Data were imported into Prism 5.0 (GraphPad), and the IC50 values were calculated by using the sigmoidal dose response curve fitting in the software. The reported IC50s were the mean values of at least three independent experiments.

[7] = system: MV4-11 cells; test: Cell migration assay (transwell); assay type: cell-based, human; conditions: treatment for 4 days
Procedure: Importantly, only these stem-like cancer cells can form new tumors when transplanted into a new host, while the other non-stem cancer cells fail to do so. These stem-like cancer cells are more drug resistant and believed to be responsible for tumor metastasis and relapse. […] CD14 and CD11b are two cell surface proteins characteristic to differentiated macrophages/monocytes. […] Similarly, incubation with 2 led to considerably more CD11b^+ cells (Fig. 3b).
Cell migration assay was performed in a 24-well transwell plate with 8-μm polyethylene terephthalate membrane filters (Falcon cell culture insert; Becton-Dickinson) separating the lower from the upper culture chambers, according to the manufacturer’s instructions. […] Triplicate samples of 10^6 cells/well were plated in the upper chamber containing serum-free RPMI-1640. RPMI-1640 supplemented with 10 % FBS in the bottom chamber was used to attract cells to move through the filter. Cells were allowed to incubate at 37 °C for 4 h, after which the cells that had migrated through the pores were harvested in the bottom chamber and counted. Results are presented as means ± s.d.

Row | Compound | EC50 [1] [µM] | EC50 [2] [µM] | EC50 [3] [µM] | expression of hematopoietic differentiation and pro-apoptotic gene sets (GSEA) [4] | half-life in the plasma [5] | IC50 [6] [µM] | ability of MV4-11 cells to migrate through a membrane with 8-μm pores [7]
1 | CN1CCN(C(=O)CNC2CC2c2ccc(OCc3ccccc3)cc2)CC1 (centres unmarked) [Compound 1] | 0.01 | 0.096 | 1.6 | significant upregulation | ~ 1 h |  | 
2 | CN1CCN(C(=O)CNC2CC2c2ccc(-c3ccc(F)nc3)cc2)CC1 (centres unmarked) [Compound 2] |  |  |  | significant upregulation |  | 0.077 | reduced ability for MV4-11 cells to migrate
